Experimental data as given in patent US9555061B2, “Synthesis and analysis of compounds capable of inducing differentiation of human mesenchymal stems cells into hepatocytes” (National University Corporation Torrori University, priority 2011, dated 2017).

Columns and labels:
[1] = test system: clinical specimen-derived mesenchymal stem cells; assay: Immunofluorescence staining in clinical specimen-derived mesenchymal stem cells; assay type: cell-based, human; details: day 8; PN-3-13 20 μM, IC-2 40 μM
Description: A cover glass that had been sterilized with 100% ethanol was placed on a 12-well plate. Cells were seeded on the cover glass at a cell density of 1.8×10^4 cells/cm^2. This day was designated as day 0. At day 1 corresponding to the next day, the medium was changed to a medium containing HC-2 (at a final concentration of 20 μM), PN-3-13 (at a final concentration of 20 μM), IC-2 (at a final concentration of 40 μM), or 0.1% DMSO. At day 4, the medium was changed in a manner similar to that at day 1. At day 8, the culture medium was removed and the cells were washed twice with PBS. Then, in order to perform immunostaining of albumin, the cells were fixed for 20 min with 4% paraformaldehyde (Nacalai Tesque) containing 8% sucrose (Wako Pure Chemical Industries, Ltd.). For immunostaining of C/EBPα or CYP1A1, the cells were fixed for 20 min with 4% paraformaldehyde. After that, the cells were permeated with 0.2% Triton X-100 (Wako Pure Chemical Industries, Ltd.) for 10 min and were then blocked in 3% BSA (Nacalai Tesque) at room temperature for 30 min without shaking.
After the primary antibody reaction, the cells were washed with 0.1% BSA/PBS. […] The cells were incubated with each antibody, and were kept in a dark condition at room temperature for 1 h to carry out a secondary antibody reaction. Their nuclei were stained with DAPI (Cell Signaling Technology Inc.). […]

[2] = test system: bone marrow-derived mesenchymal stem cells; assay: RT-PCR of albumin in sorted bone marrow-derived mesenchymal stem cells; assay type: cell-based, human; details: 45 μM
Description: Cells were seeded on a 6-well plate at a cell density of 1.8×10^4 cells/cm^2. This day was designated as day 0. At day 1 corresponding to the next day, the medium was changed to a medium containing IC-2 (at a final concentration of 25, 35, or 45 μM) or 0.1% DMSO. At day 4, the medium was changed in a manner similar to that at day 1, and at day 8, the cells were reseeded and subcultured at a cell density of 1.8×10^4 cells/cm^2. After that, the medium was replaced twice during 8 days, and the cells were subcultured every 8 days. Then, the similar operation was carried out until day 24. At days 8, 16, and 24 after the initiation of the induction, TRIzol (Invitrogen) was used to extract total RNA according to the attached instruction. After the extraction, deoxyribonuclease (Nippon Gene) was added, and the mixture was incubated at 37° C. for 30 min to remove DNA. In a reverse transcription reaction, SuperScriptII Reverse Transcriptase (Invitrogen) and Oligo(dT)15 primer were added to 1 μg of RNA to convert it into cDNA. In a RT-PCR method, the cDNA was diluted by 5 times. Next, 1 μl of the cDNA was used as a template. Then, rTaq DNA polymerase (TOYOBO) was used to amplify the cDNA. MQ water was used as a negative control. cDNA from Huh-7 or UE7T-13 cells was used as a positive control.
In order to determine hepatocyte differentiation markers, levels of expression of albumin were measured. […]

UE7T-13 cells [3] = assay: Urea assay (UE7T-13); assay type: cell-based, human; details: day 16
Description: The cells were plated on a 24-well plate, and were cultured in a medium containing IC-2, etc. Ammonium chloride (at a final concentration of 5 mM) was added to the medium, and the cells were cultured for 48, 72, and 96 h. Then, an amount of urea in the medium was determined using a QuantiChrom Urea Assay Kit (BioAssay Systems) and a fluorescence plate reader (TECAN) at a wavelength of 520 nm.

UE7T-13 cells [4] = assay: Immunocytochemistry of hepatocyte markers (UE7T-13); assay type: cell-based, human; details: day 16
Description: A cover glass (22×22 mm, […]) was sterilized with 70% EtOH and placed in a 6-well plate. Next, cells were seeded on the cover glass and cultured in a medium containing IC-2, etc. At 8, 16, and […] after the initiation of the culture, the cells were washed twice with PBS. Then, the cells were treated with 4% paraformaldehyde/PBS for 20 min and fixed onto the cover glass. After that, the cells were permeated with 0.2% Triton X-100 for 10 min. Subsequently, the cells were blocked with 3% BSA/PBS for 30 min. An anti-albumin antibody, anti-C/EBP antibody, anti-AFP antibody, or anti-CYP1A1 antibody was used as a primary antibody, and the cells were incubated therewith at 4° C. overnight. Next, an Alexa Fluoro 488 goat anti-mouse antibody or Alexa Fluoro 594 goat anti-rabbit antibody was used as a secondary antibody, and the cells were incubated therewith at room temperature for 1 h. DAPI was used for nuclear staining. Thereafter, 50% glycerol diluted with PBS was used to mount the cover glass. Finally, the cells were observed under a confocal laser microscope. The cells which had been cultured with 0.1% DMSO were used as a control.

UE7T-13 cells [5] = assay: Proliferation potential (toxicity), MTT assay (UE7T-13)
UE7T-13 cells [6] = assay: Hepatocyte differentiation induction, RT-PCR of albumin (UE7T-13); assay type: cell-based, human; details: 15 μM
Description: After 24 h, the medium was changed to a medium containing IC-2, etc. After that, the medium was changed twice a week, and the cells were subcultured once a week to adjust a cell number at 9.0×10^3 cells/cm^2. Total RNA was collected at days 8, 16, and 24 after the initiation of the induction.
Total RNA was extracted with a TRIzol reagent. After the extraction, in order to completely remove DNA, deoxyribonuclease was added and the mixture was incubated at 37° C. for 1 h. A SuperScript First-Stand Synthesis System for RT-PCR (Invitrogen) was used for reverse transcription, and an oligo dT primer was used to convert 1 μg of RNA into cDNA. To perform a PCR, the cDNA was diluted by 5 times and 1 μl of the cDNA was used. A recombinant Taq DNA polymerase (Invitrogen) was used for the PCR. With regard to primers for human albumin, 5′-[…]-3′ (SEQ ID NO: 1) and 5′-[…]-3′ (SEQ ID NO: 2) were used. The PCR involved 1 cycle of 95° C. for 2 min and 35 cycles of 95° C. for 30 sec, 58° C. for 30 sec, and 72° C. for 30 sec. Human glyceraldehyde 3-phosphate dehydrogenase (GAPDH) was used as an internal control. With regard to GAPDH primers, 5′-[…]-3′ (SEQ ID NO: 3) and 5′-[…]-3′ (SEQ ID NO: 4) were used. The PCR involved 1 cycle of 95° C. for 2 min and 20 cycles of 95° C. for 30 sec, 60° C. for 30 sec, and 72° C. for 30 sec. […]

Substance: (6S,9aS)-6-phenyl-8-naphthalen-1-ylmethyl-4,7-dioxo-hexahydro-pyrazino[1,2-a]pyrimidine-1-carbocylic acid benzylamide [IC-2]
- levels of expression of albumin, C/EBPα, and CYP1A1 compared with negative control (0.1% DMSO) [1]: apparently increased
- albumin expression compared with 0.1% DMSO [2]: remarkable increase
- cellular urea synthesis compared with negative control (0.1% DMSO) (UE7T-13 cells [3]): remarkably increased
- levels of expression of albumin, C/EBPα, CYP1A1, and CYP3A4 (UE7T-13 cells [4]): remarkably increased
- concentration with very low cell toxicity toward UE7T-13 cells (UE7T-13 cells [5]; days 2, 4, 8 of treatment): ≤ 20 µM
- concentration at which proliferation potential did not remain (UE7T-13 cells [5]; days 2, 4, and 8): 50 µM
- levels of the albumin expression (UE7T-13 cells [6]): particularly high
